≈ marks a conversion by molar mass, not a printed value. Where a SMILES comes first, the peptide text is derived from it. Bridges are numbered along the chain shown (N, C = ends). Roman numbers before positions name the chains, in order. [ ]: non-standard residue; d: D form. dDab = NCC[C@@H](N)C(=O)O; Orn = NCCC[C@H](N)C(=O)O; Dab = NCC[C@H](N)C(=O)O; Dap = NC[C@H](N)C(=O)O
Experiments:
Type in all cases: cell-based
[1] = tested on: Acinetobacter baumannii 872842; conditions: 872842
In short: (§1)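 CLSI broth microdilution in cation-adjusted Mueller-Hinton II broth with 0.002% polysorbate 80 (final), inoculum appr. 10^6 CFU/mL, peptides in serial two-fold dilutions. MIC (μg/mL) is the lowest concentration without visible growth after 18-20 h at 35° C.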

[2] = tested on: Acinetobacter baumannii DSM 30008; conditions: DSM 30008
In short: as §1

[3] = tested on: Enterobacter cloacae 848840; conditions: 848840
In short: as §1

Escherichia coli 926415 = conditions: 926415
In short: as §1

[4] = tested on: Escherichia coli ATCC 25922; conditions: ATCC 25922
In short: as §1

[5] = tested on: Klebsiella pneumoniae 968733; conditions: 968733
In short: as §1

[6] = tested on: Klebsiella pneumoniae SSI #3010; conditions: SSI #3010
In short: as §1

[7] = tested on: Pseudomonas aeruginosa ATCC 27853; conditions: ATCC 27853
In short: as §1

[8] = tested on: human red blood cells (hRBC); test: Hemolysis; conditions: red cells of human, 1 h, 200
In short: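 Washed fresh hRBC (20% v/v) were incubated with peptides at 200 μg/mL for 1 h at 37° C with shaking at 300 rpm. Supernatant OD540 was read after centrifugation and dilution, blank-corrected, and expressed as percent of the 2% Triton X-100 (100% lysis) control; PBS with 10% water gave 0%.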

With CC(=O)N[C@H](C(=O)N[C@H]1CSSC[C@@H](C(=O)N[C@@H](CO)C(N)=O)NC(=O)[C@H](C(C)C)NC(=O)[C@H](CO)NC(=O)[C@H](Cc2c[nH]c3ccccc23)NC(=O)[C@H](CCC(=O)N[C@@H](CCN)C(=O)N[C@H](C(=O)N[C@@H](CN)C(=O)N[C@H]2CCNC(=O)[C@H]([C@@H](C)O)NC(=O)[C@H](CCN)NC(=O)[C@H](CCN)NC(=O)[C@H](CC(C)C)NC(=O)[C@@H](CC(C)C)NC(=O)[C@H](CCN)NC2=O)[C@@H](C)O)NC(=O)[C@@H](CCN)NC(=O)[C@H](CCCN)NC(=O)[C@H](CO)NC(=O)[C@H](Cc2ccc(O)cc2)NC1=O)C(C)C [Ex. 354] (I: Ac-VCYS[Orn][dDab]EWSVCS-NH2 / II: [Dab]T[Dap][Dab][Dab][dL]L[Dab][Dab]T; disulfide I:2-I:11; amide I:7-II:N; lactam II:4-II:C) the MIC [1] was 0.0625 µg/mL (≈ 0.0259 µM), the “Acinetobacter baumannii DSM 30008 MIC” value [2] was 0.03125 µg/mL and the MIC [3] was 0.125 µg/mL (≈ 0.0518 µM). The MIC (Escherichia coli 926415) was 0.5 µg/mL (≈ 0.207 µM), the “Escherichia coli ATCC 25922 MIC” value [4] was 0.0625 µg/mL and the MIC [5] was 0.25 µg/mL (≈ 0.104 µM). For the same molecule, the “Klebsiella pneumoniae SSI #3010 MIC” value [6] was 0.0625 µg/mL, the “Pseudomonas aeruginosa ATCC 27853 MIC” value [7] was 0.125 µg/mL and the “Hemolysis at 200 μg/mL” value [8] was 1%.

For CC(=O)N[C@H](C(=O)N[C@H]1CSSC[C@@H](C(=O)N[C@@H](CO)C(N)=O)NC(=O)[C@H](C(C)C)NC(=O)[C@H](CO)NC(=O)[C@H](Cc2c[nH]c3ccccc23)NC(=O)[C@H](CCC(=O)N[C@@H](CCN)C(=O)N[C@H](C(=O)N[C@@H](CN)C(=O)N[C@H]2CCNC(=O)[C@H]([C@@H](C)O)NC(=O)[C@H](CCN)NC(=O)[C@H](CCN)NC(=O)[C@H](CC(C)C)NC(=O)[C@@H](CC(C)C)NC(=O)[C@H](CCN)NC2=O)[C@@H](C)O)NC(=O)[C@@H](CCN)NC(=O)[C@H](CCCN)NC(=O)[C@H]([C@@H](C)O)NC(=O)[C@H](Cc2ccc(O)cc2)NC1=O)C(C)C [Ex. 355] (I: Ac-VCYT[Orn][dDab]EWSVCS-NH2 / II: [Dab]T[Dap][Dab][Dab][dL]L[Dab][Dab]T; disulfide I:2-I:11; amide I:7-II:N; lactam II:4-II:C), the MIC [1] was 0.0625 µg/mL (≈ 0.0258 µM), the “Acinetobacter baumannii DSM 30008 MIC” value [2] was 0.03125 µg/mL and the MIC [3] was 0.125 µg/mL (≈ 0.0515 µM). The MIC (Escherichia coli 926415) was 0.25 µg/mL (≈ 0.103 µM), the “Escherichia coli ATCC 25922 MIC” value [4] was 0.03125 µg/mL and the MIC [5] was 0.25 µg/mL (≈ 0.103 µM). The “Klebsiella pneumoniae SSI #3010 MIC” value [6] was 0.0625 µg/mL, the “Pseudomonas aeruginosa ATCC 27853 MIC” value [7] was 0.125 µg/mL and the “Hemolysis at 200 μg/mL” value [8] was 6%.

In the case of CC(=O)N[C@H](C(=O)N[C@H]1CSSC[C@@H](C(=O)N[C@@H](CO)C(N)=O)NC(=O)[C@H](C(C)C)NC(=O)[C@H](CO)NC(=O)[C@H](Cc2c[nH]c3ccccc23)NC(=O)[C@H](CCC(=O)N[C@@H](CCN)C(=O)N[C@H](C(=O)N[C@@H](CN)C(=O)N[C@H]2CCNC(=O)[C@H]([C@@H](C)O)NC(=O)[C@H](CCN)NC(=O)[C@H](CCN)NC(=O)[C@H](CC(C)C)NC(=O)[C@@H](CC(C)C)NC(=O)[C@H](CCN)NC2=O)[C@@H](C)O)NC(=O)[C@@H](CCN)NC(=O)[C@H](CCN)NC(=O)[C@H](CO)NC(=O)[C@H](Cc2ccc(O)cc2)NC1=O)C(C)C [Ex. 356] (I: Ac-VCYS[Dab][dDab]EWSVCS-NH2 / II: [Dab]T[Dap][Dab][Dab][dL]L[Dab][Dab]T; disulfide I:2-I:11; amide I:7-II:N; lactam II:4-II:C), the MIC [1] is reported as 0.125 µg/mL (≈ 0.0521 µM), the “Acinetobacter baumannii DSM 30008 MIC” value [2] is reported as 0.0625 µg/mL and the MIC [3] is reported as 0.125 µg/mL (≈ 0.0521 µM). For the same molecule, the MIC (Escherichia coli 926415) was 0.25 µg/mL (≈ 0.104 µM), the “Escherichia coli ATCC 25922 MIC” value [4] was 0.0625 µg/mL and the MIC [5] was 0.25 µg/mL (≈ 0.104 µM). For the same molecule, the “Klebsiella pneumoniae SSI #3010 MIC” value [6] was 0.0625 µg/mL, the “Pseudomonas aeruginosa ATCC 27853 MIC” value [7] was 0.125 µg/mL and the “Hemolysis at 200 μg/mL” value [8] was 2%.

With CC(=O)N[C@H](C(=O)N[C@H]1CSSC[C@@H](C(=O)N[C@@H](CO)C(N)=O)NC(=O)[C@H](C(C)C)NC(=O)[C@H](CO)NC(=O)[C@H](Cc2c[nH]c3ccccc23)NC(=O)[C@H](CCC(=O)N[C@@H](CCN)C(=O)N[C@H](C(=O)N[C@@H](CN)C(=O)N[C@H]2CCNC(=O)[C@H]([C@@H](C)O)NC(=O)[C@H](CCN)NC(=O)[C@H](CCN)NC(=O)[C@H](CC(C)C)NC(=O)[C@@H](CC(C)C)NC(=O)[C@H](CCN)NC2=O)[C@@H](C)O)NC(=O)[C@@H](CCN)NC(=O)CNC(=O)[C@H](CO)NC(=O)[C@H](Cc2ccc(O)cc2)NC1=O)C(C)C [Ex. 357] (I: Ac-VCYSG[dDab]EWSVCS-NH2 / II: [Dab]T[Dap][Dab][Dab][dL]L[Dab][Dab]T; disulfide I:2-I:11; amide I:7-II:N; lactam II:4-II:C) the MIC [1] was 0.25 µg/mL (≈ 0.106 µM), the “Acinetobacter baumannii DSM 30008 MIC” value [2] was 0.0625 µg/mL and the MIC [3] was 0.125 µg/mL (≈ 0.0531 µM). The MIC (Escherichia coli 926415) was 0.5 µg/mL (≈ 0.212 µM), the “Escherichia coli ATCC 25922 MIC” value [4] was 0.0625 µg/mL and the MIC [5] was 0.5 µg/mL (≈ 0.212 µM). The “Klebsiella pneumoniae SSI #3010 MIC” value [6] was 0.125 µg/mL, the “Pseudomonas aeruginosa ATCC 27853 MIC” value [7] was 0.25 µg/mL and the “Hemolysis at 200 μg/mL” value [8] was under 1%.

In the case of CC(=O)N[C@H](C(=O)N[C@H]1CSSC[C@@H](C(=O)N[C@@H](CO)C(N)=O)NC(=O)[C@H](C(C)C)NC(=O)[C@H](CO)NC(=O)[C@H](Cc2c[nH]c3ccccc23)NC(=O)[C@H](CCC(=O)N[C@@H](CCN)C(=O)N[C@H](C(=O)N[C@@H](CN)C(=O)N[C@H]2CCNC(=O)[C@H]([C@@H](C)O)NC(=O)[C@H](CCN)NC(=O)[C@H](CCN)NC(=O)[C@H](CC(C)C)NC(=O)[C@@H](CC(C)C)NC(=O)[C@H](CCN)NC2=O)[C@@H](C)O)NC(=O)[C@@H](CCN)NC(=O)CNC(=O)[C@H](CCN)NC(=O)[C@H](Cc2ccc(O)cc2)NC1=O)C(C)C [Ex. 360] (I: Ac-VCY[Dab]G[dDab]EWSVCS-NH2 / II: [Dab]T[Dap][Dab][Dab][dL]L[Dab][Dab]T; disulfide I:2-I:11; amide I:7-II:N; lactam II:4-II:C), the MIC [1] is reported as 0.125 µg/mL (≈ 0.0528 µM), the “Acinetobacter baumannii DSM 30008 MIC” value [2] is reported as 0.0625 µg/mL and the MIC [3] is reported as 0.125 µg/mL (≈ 0.0528 µM). For the same molecule, the MIC (Escherichia coli 926415) was 0.25 µg/mL (≈ 0.106 µM), the “Escherichia coli ATCC 25922 MIC” value [4] was 0.0625 µg/mL and the MIC [5] was 0.5 µg/mL (≈ 0.211 µM). The “Klebsiella pneumoniae SSI #3010 MIC” value [6] was 0.0625 µg/mL, the “Pseudomonas aeruginosa ATCC 27853 MIC” value [7] was 0.125 µg/mL and the “Hemolysis at 200 μg/mL” value [8] was 2%.

CC(=O)N[C@H](C(=O)N[C@H]1CSSC[C@@H](C(=O)N[C@@H](CO)C(N)=O)NC(=O)[C@H](C(C)C)NC(=O)[C@H](CO)NC(=O)[C@H](Cc2c[nH]c3ccccc23)NC(=O)[C@@H](CCC(=O)N[C@@H](CCN)C(=O)N[C@H](C(=O)N[C@@H](CN)C(=O)N[C@H]2CCNC(=O)[C@H]([C@@H](C)O)NC(=O)[C@H](CCN)NC(=O)[C@H](CCN)NC(=O)[C@H](CC(C)C)NC(=O)[C@@H](CC(C)C)NC(=O)[C@H](CCN)NC2=O)[C@@H](C)O)NC(=O)[C@@H](CCN)NC(=O)[C@H](CCCN)NC(=O)[C@H](CO)NC(=O)[C@H](Cc2ccc(O)cc2)NC1=O)C(C)C [Ex. 366] (I: Ac-VCYS[Orn][dDab][dE]WSVCS-NH2 / II: [Dab]T[Dap][Dab][Dab][dL]L[Dab][Dab]T; disulfide I:2-I:11; amide I:7-II:N; lactam II:4-II:C) was tested, and the MIC [1] was 0.5 µg/mL (≈ 0.207 µM), the “Acinetobacter baumannii DSM 30008 MIC” value [2] was 0.25 µg/mL and the MIC [3] was 8 µg/mL (≈ 3.32 µM). For the same molecule, the MIC (Escherichia coli 926415) was 0.5 µg/mL (≈ 0.207 µM), the “Escherichia coli ATCC 25922 MIC” value [4] was 0.125 µg/mL and the MIC [5] was 2 µg/mL (≈ 0.829 µM). The “Klebsiella pneumoniae SSI #3010 MIC” value [6] was 0.25 µg/mL, the “Pseudomonas aeruginosa ATCC 27853 MIC” value [7] was 0.25 µg/mL and the “Hemolysis at 200 μg/mL” value [8] was 4%.

With CC(=O)N[C@H](C(=O)N[C@H]1CSSC[C@@H](C(=O)N[C@@H](C)C(=O)N[C@@H](CO)C(N)=O)NC(=O)[C@H](C(C)C)NC(=O)[C@H](CO)NC(=O)[C@H](Cc2c[nH]c3ccccc23)NC(=O)[C@H](CO)NC(=O)[C@@H](CCN)NC(=O)[C@H](CCC(=O)N[C@@H](CCN)C(=O)N[C@H](C(=O)N[C@@H](CN)C(=O)N[C@H]2CCNC(=O)[C@H]([C@@H](C)O)NC(=O)[C@H](CCN)NC(=O)[C@H](CCN)NC(=O)[C@H](CC(C)C)NC(=O)[C@@H](CC(C)C)NC(=O)[C@H](CCN)NC2=O)[C@@H](C)O)NC(=O)[C@H](CCN)NC(=O)[C@H](Cc2ccc(O)cc2)NC1=O)C(C)C [Ex. 367] (I: Ac-VCY[Dab]E[dDab]SWSVCAS-NH2 / II: [Dab]T[Dap][Dab][Dab][dL]L[Dab][Dab]T; disulfide I:2-I:11; amide I:5-II:N; lactam II:4-II:C) the MIC [1] was 0.03125 µg/mL (≈ 0.0127 µM), the “Acinetobacter baumannii DSM 30008 MIC” value [2] was 0.007813 µg/mL and the MIC [3] was 0.0625 µg/mL (≈ 0.0253 µM). The MIC (Escherichia coli 926415) was 0.0625 µg/mL (≈ 0.0253 µM), the “Escherichia coli ATCC 25922 MIC” value [4] was 0.01562 µg/mL and the MIC [5] was 0.0625 µg/mL (≈ 0.0253 µM). The “Klebsiella pneumoniae SSI #3010 MIC” value [6] was 0.03125 µg/mL, the “Pseudomonas aeruginosa ATCC 27853 MIC” value [7] was 0.0625 µg/mL and the “Hemolysis at 200 μg/mL” value [8] was under 1%.

From patent publication US11629171B2, “Beta-hairpin peptidomimetics” (POLYPHOR AG, priority 2017, dated 2023)
